This passage reports IC50 results from patent publication US20250195521A1 (Revolution Medicines, Inc., priority 2020, published 2025).

Assay [1] has as its system Capan-1 cells (K-Ras G12V). In words: CellTiter-Glo cell viability, Capan-1. It counts as cell-based, human. As to conditions: K-Ras G12V, 5-day treatment, read-out: Capan-1 Cell Viability IC50. The method, boiled down:
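Compounds dispensed directly onto seeded cells; on day 5 plates equilibrated ~30 min to room temperature and luminescence read. Signal normalized to DMSO average (%) and fitted by four-parameter logistic.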
(In general: In ATP-based viability assays light output follows the ATP content of the culture.)

Assay [2] has as its target KRAS G12S (Homo sapiens (Human), UniProt P01116+P62937, G12S). The assay is described as follows: Ras-Raf disruption/FRET/MOA assay (BRAF RBD, Cyclophilin A). In kind it is biochemical. As to conditions: read-out: KRAS G12S FRET IC50. As to the method:
(§1) Compound is present in plate wells as a 10-point 3-fold dilution series starting at a final concentration of 30 μM. After incubation at 25° C. for 3 hours, a mixture of Anti-His Eu—W1024 and anti-GST allophycocyanin is then added to assay sample wells at final concentrations of 10 nM and 50 nM, respectively, and the reaction incubated for an additional 1.5 hours. […] Compounds that facilitate disruption of a Ras: RAF complex are identified as those eliciting a decrease in the TR-FRET ratio relative to DMSO control wells.
(§2) Disruption of B-Raf Ras-Binding Domain (BRAF^RBD) Interaction with K-Ras by Compounds of the Invention (Also Called a FRET Assay or an MOA Assay)
(§3) Note—The following protocol describes a procedure for monitoring disruption of K-Ras G12C (GMP-PNP) binding to BRAF^RBD by a compound of the invention. This protocol may also be executed substituting other Ras proteins or nucleotides.
(§4) The purpose of this biochemical assay was to measure the ability of test compounds to facilitate ternary complex formation between a nucleotide-loaded K-Ras isoform and Cyclophilin A; the resulting ternary complex disrupts binding to a BRAF^RBD construct, inhibiting K-Ras signaling through a RAF effector. Data is reported as IC50 values.
(§5) In assay buffer containing 25 mM HEPES pH 7.3, 0.002% Tween20, 0.1% BSA, 100 mM NaCl and 5 mM MgCl2, tagless Cyclophilin A, His6-K-Ras-GMPPNP, and GST-BRAF^RBD were combined in a 384-well assay plate at final concentrations of 25 μM, 12.5 nM and 50 nM, respectively. Compound was present in plate wells as a 10-point 3-fold dilution series starting at a final concentration of 30 μM. After incubation at 25° C. for 3 hours, a mixture of Anti-His Eu—W1024 and anti-GST allophycocyanin was then added to assay sample wells at final concentrations of 10 nM and 50 nM, respectively, and the reaction incubated for an additional 1.5 hours. […] Compounds that facilitate disruption of a K-Ras: RAF complex were identified as those eliciting a decrease in the TR-FRET ratio relative to DMSO control wells.

Assay [3] addresses KRAS G12D (Homo sapiens (Human), UniProt P01116+P62937, G12D). The description is as above. In kind it is biochemical. Particulars: read-out: KRAS G12D FRET IC50. As to the method: as §1, §2, §3, §4, §5
In assay [4] the target is KRAS G12V (Homo sapiens (Human), UniProt P01116+P62937, G12V). Described as above. In kind it is biochemical. Particulars: read-out: KRAS G12V FRET IC50. On the procedure:
as §1, §2, §3, §4, §5

Assay [5] deals with KRAS G13C (Homo sapiens (Human), UniProt P01116+P62937, G13C). The assay is described as above. In kind it is biochemical. As to conditions: read-out: KRAS G13C FRET IC50. As to the method:
as §1, §2, §3, §4, §5

Assay [6] has as its target NRAS G12C (Homo sapiens (Human), UniProt P01111+P62937, G12C). The assay is described as above. It counts as biochemical. As to conditions: read-out: NRAS G12C FRET data IC50. As to the method:
as §1, §2, §3, §4, §5

For assay [7], the target named is KRAS WT (Homo sapiens (Human), UniProt P01116+P62937). Described as above. In kind it is biochemical. Particulars: read-out: KRAS WT FRET data IC50. As to the method: as §1, §2, §3, §4, §5
Chain of KRAS WT (P01116 other isoform, or with tags, fused parts or gaps): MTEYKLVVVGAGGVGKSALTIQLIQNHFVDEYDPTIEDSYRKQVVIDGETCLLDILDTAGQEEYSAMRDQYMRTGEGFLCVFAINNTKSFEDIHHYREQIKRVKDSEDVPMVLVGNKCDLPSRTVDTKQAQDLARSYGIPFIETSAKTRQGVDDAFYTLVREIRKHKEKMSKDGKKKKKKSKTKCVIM
Chain of KRAS WT (P62937 whole entry): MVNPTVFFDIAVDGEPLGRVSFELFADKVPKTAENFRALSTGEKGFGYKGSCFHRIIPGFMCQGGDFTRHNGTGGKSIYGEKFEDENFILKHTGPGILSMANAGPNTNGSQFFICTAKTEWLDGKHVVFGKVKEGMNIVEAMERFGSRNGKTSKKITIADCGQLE
The target in assay [8] is KRAS G13D (Homo sapiens (Human), UniProt P01116+P62937, G13D). The description is as above. It counts as biochemical. As to conditions: read-out: KRAS G13D FRET data IC50. On the procedure: as §1, §2, §3, §4, §5
Chain of KRAS G13D (P01116 other isoform, or with tags, fused parts or gaps G13D): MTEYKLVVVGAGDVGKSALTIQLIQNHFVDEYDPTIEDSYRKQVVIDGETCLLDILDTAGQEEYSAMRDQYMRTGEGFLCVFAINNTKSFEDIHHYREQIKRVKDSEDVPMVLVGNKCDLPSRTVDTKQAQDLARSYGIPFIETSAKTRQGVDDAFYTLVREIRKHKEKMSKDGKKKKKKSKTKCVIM
Chain of KRAS G13D (P62937 whole entry): as the sequence (P62937 whole entry) above
For assay [9], the target named is KRAS G12C (Homo sapiens (Human), UniProt P01116+P62937, G12C). The description is as above. In kind it is biochemical. As to conditions: read-out: KRAS G12C FRET IC50. As to the method:
as §1, §2, §3, §4, §5

One may read the IC50 as the point on the concentration scale where inhibition reaches its midpoint.

The structures appear in SMILES notation. Like-named read-outs stand apart in the source and are kept apart here.

Chain of KRAS G13C (P01116 other isoform, or with tags, fused parts or gaps G13C): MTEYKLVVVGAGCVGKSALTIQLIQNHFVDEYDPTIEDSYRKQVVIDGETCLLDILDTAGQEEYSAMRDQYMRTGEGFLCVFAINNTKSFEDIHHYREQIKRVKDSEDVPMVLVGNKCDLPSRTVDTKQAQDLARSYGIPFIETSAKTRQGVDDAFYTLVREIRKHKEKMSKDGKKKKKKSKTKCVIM
Chain of KRAS G13C (P62937 whole entry): as the sequence (P62937 whole entry) above
Chain of KRAS G12D (P01116 other isoform, or with tags, fused parts or gaps G12D): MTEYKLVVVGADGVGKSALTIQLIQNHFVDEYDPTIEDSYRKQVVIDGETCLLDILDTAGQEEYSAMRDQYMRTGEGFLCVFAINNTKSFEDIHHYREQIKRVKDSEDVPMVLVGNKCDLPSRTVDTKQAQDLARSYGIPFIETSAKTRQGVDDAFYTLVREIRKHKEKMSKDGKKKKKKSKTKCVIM
Chain of KRAS G12D (P62937 whole entry): as the sequence (P62937 whole entry) above
Chain of KRAS G12V (P01116 other isoform, or with tags, fused parts or gaps G12V): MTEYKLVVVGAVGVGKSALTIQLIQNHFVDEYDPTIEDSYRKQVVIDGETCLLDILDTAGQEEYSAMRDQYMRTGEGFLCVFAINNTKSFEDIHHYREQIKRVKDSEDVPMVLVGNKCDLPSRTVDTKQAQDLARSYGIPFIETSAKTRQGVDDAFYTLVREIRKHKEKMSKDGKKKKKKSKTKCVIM
Chain of KRAS G12V (P62937 whole entry): as the sequence (P62937 whole entry) above
Chain of NRAS G12C (P01111 whole entry G12C): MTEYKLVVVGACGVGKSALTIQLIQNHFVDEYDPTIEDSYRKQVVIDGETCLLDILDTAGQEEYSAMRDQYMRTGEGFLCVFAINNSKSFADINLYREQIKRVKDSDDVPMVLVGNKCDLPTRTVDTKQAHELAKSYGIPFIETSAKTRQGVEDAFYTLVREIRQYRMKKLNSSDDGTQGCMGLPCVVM
Chain of NRAS G12C (P62937 whole entry): as the sequence (P62937 whole entry) above
Chain of KRAS G12C (P01116-2 other isoform, or with tags, fused parts or gaps G12C): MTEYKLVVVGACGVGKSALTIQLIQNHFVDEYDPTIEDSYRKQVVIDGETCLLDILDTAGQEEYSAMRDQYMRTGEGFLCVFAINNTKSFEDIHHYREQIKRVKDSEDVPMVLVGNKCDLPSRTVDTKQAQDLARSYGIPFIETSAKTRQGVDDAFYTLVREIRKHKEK
Chain of KRAS G12C (P62937 whole entry): as the sequence (P62937 whole entry) above
Chain of KRAS G12S (P01116 other isoform, or with tags, fused parts or gaps G12S): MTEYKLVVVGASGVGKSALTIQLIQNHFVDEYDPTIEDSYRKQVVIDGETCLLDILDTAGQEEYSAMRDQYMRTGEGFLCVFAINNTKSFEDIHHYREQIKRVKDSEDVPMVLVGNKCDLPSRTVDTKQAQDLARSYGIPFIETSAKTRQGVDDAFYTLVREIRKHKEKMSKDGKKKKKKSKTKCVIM
Chain of KRAS G12S (P62937 whole entry): as the sequence (P62937 whole entry) above

As to `CCn1c(-c2cccnc2[C@H](C)OC)c2c3cc(ccc31)-c1cc(O)cc(c1)C[C@H](NC(=O)[C@H](C(C)C)N(C)C(=O)C1CNCCO1)C(=O)N1CCC[C@H](N1)C(=O)OCC(C)(C)C2` (stereo partly drawn) [Compound A229], the IC50 in assay [1] (Homo sapiens, CAPAN-1, 120 h) fell in the range of 1000 to 10000 nM; in assay [2], 100 to 1000 nM; in assay [3], 100 to 1000 nM; in assay [4] it was 100 to 1000 nM; in assay [5] it was 10 to 100 nM; in assay [6] it was 10 to 100 nM. The IC50 in [7] lay within 100 to 1000 nM; in assay [8] it was 10 to 100 nM; in assay [9] it was 10 to 100 nM.

With `CCn1c(-c2cccnc2[C@H](C)OC)c2c3cc(ccc31)-c1cc(O)cc(c1)C[C@H](NC(=O)[C@H](C(C)C)N(C)C(=O)[C@H]1CNC[C@@H]1C)C(=O)N1CCC[C@H](N1)C(=O)OCC(C)(C)C2` [Compound A251], the IC50 in [1] (Homo sapiens, CAPAN-1, 120 h) is > 10000 nM; in [2], 100 to 1000 nM; in assay [3], 100 to 1000 nM; in assay [4], 100 to 1000 nM; in assay [5], 10 to 100 nM; in assay [6], 100 to 1000 nM. Besides, the IC50 in assay [7] was in the range of 100 to 1000 nM; in assay [8], 10 to 100 nM; in assay [9], 100 to 1000 nM.

On to `CCn1c(-c2cccnc2[C@H](C)OC)c2c3cc(ccc31)-c1csc(n1)C[C@H](NC(=O)[C@H](C(C)C)N(C)C(=O)N1CC(C3COC3)C1)C(=O)N1CCC[C@H](N1)C(=O)OCC(C)(C)C2` [Compound A298], for which the IC50 is 10 to 100 nM in assay [1] (Homo sapiens, CAPAN-1, 120 h); 100 to 1000 nM in assay [2]; 100 to 1000 nM in assay [3]; 100 to 1000 nM in assay [4]; 100 to 1000 nM in assay [5]; 10 to 100 nM in assay [6]. For the same compound, the values for the IC50 in assay [7], in [8] and in assay [9] were 10 to 100 nM, 100 to 1000 nM and 10 to 100 nM, respectively.

Consider `CO[C@@H](C)c1ncccc1-c1c2c3cc(ccc3n1CC(F)(F)F)-c1csc(n1)C[C@H](NC(=O)[C@H](C(C)C)N(C)C(=O)N1CC(N(C)C)C1)C(=O)N1CCC[C@H](N1)C(=O)OCC(C)(C)C2` [Compound A303], for which the IC50 is 10 to 100 nM in assay [1]; 100 to 1000 nM in [2]; 100 to 1000 nM in assay [3]; 100 to 1000 nM in assay [4]; 100 to 1000 nM in [5]; 10 to 100 nM in assay [6]. Also, the figures for the IC50 in assay [7], in assay [8] and in [9] were 100 to 1000 nM, 100 to 1000 nM and 10 to 100 nM, respectively.

In the case of `CCn1c(-c2cccnc2[C@H](C)OC)c2c3cc(ccc31)-c1cc(O)cc(c1)C[C@H](NC(=O)[C@H](C(C)C)N1CNCC1=O)C(=O)N1CCC[C@H](N1)C(=O)OCC(C)(C)C2` [Compound A345], the IC50 in [1] (Homo sapiens, CAPAN-1, 120 h) lay within 1000 to 10000 nM; in assay [2], 1000 to 10000 nM; in assay [3], 1000 to 10000 nM; in [4], 100 to 1000 nM; in assay [5] it was 100 to 1000 nM; in [6] it was 100 to 1000 nM. Moreover, the IC50 in [7], in assay [8] and in assay [9] was 100 to 1000 nM throughout.

`CCn1c(-c2cccnc2[C@H](C)OC)c2c3cc(ccc31)-c1cc(O)cc(c1)C[C@H](NC(=O)C(C)=C(C)C)C(=O)N1CCC[C@H](N1)C(=O)OCC(C)(C)C2` [Compound A398]: the IC50 in [1] (Homo sapiens, CAPAN-1, 120 h) was 1000 to 10000 nM; in assay [2], 1000 to 10000 nM; in [3], > 10000 nM; in assay [4], 1000 to 10000 nM; in assay [5] it was 100 to 1000 nM; in [6] it was 1000 to 10000 nM. The IC50 in assay [7], in assay [8] and in [9] was 1000 to 10000 nM throughout.
